According to patent US20060269504A1, “Use of alkyl resorcinols in the treatment of acne” (priority 2003, published 2006):
≈ marks a conversion by molar mass, not a printed value. Entries after “also recorded” stand apart in the source; their conditions may differ. Where two headings read alike, the source gives them in different places.

Key:
[1] = system: P. acnes G63 and P. avidum NCTC 11864; test: In vitro propionibacterial model: glucose biotransformation to propionic acid (GC) and culture viability (TVC); type: cell-based; conditions: for BIC50 MoA(s), mode(s) of action at BIC50 levels: P. acnes G63 and P. avidum NCTC 11864, by reference to culture viability data; for BIC50, mean concentration at 50% inhibition of glucose biotransformation to propionic acid: mean of P. acnes G63 and P. avidum NCTC 11864, anaerobic, 35° C.; for BIC50, mean concentration at 50% inhibition of glucose biotransformation to propionic acid / MBC, range of minimum bactericidal levels: 24 h; for MBC, range of minimum bactericidal levels: range for P. acnes G63 and P. avidum NCTC 11864, minimum level effecting >3 log10 reduction in viability
Description: (§1) The propionibacterial model involved the use of 7 ml glass vials, to which were added 6.0 ml synthetic medium (see below), supplemented with glucose substrate (2.0 mg/ml). The corynebacterial model involved the use of 250 ml baffled shake flasks, to which were added 30.0 ml synthetic medium (see below), supplemented with fatty acid substrate (2.0 mg/ml pentadecanoic acid). To each vial or flask (other than controls) was also added one of the indicated test materials, from a 1.0-10.0% (w/v) stock solution in 50% (v/v) ethanol. Each assay was inoculated with fresh bacterial biomass (Propionibacterium acnes G63 [skin isolate], P. avidum NCTC 11864 or Corynebacterium sp. NCIMB 40928), pre-grown for 24-48 h, under aerobic (corynebacteria) or anaerobic (propionibacteria) conditions, in TSBT (see below), to give starting optical densities (A590) of ˜1.0. Following inoculation, the vials and flasks were incubated aerobically (corynebacteria) or anaerobically (propionibacteria) at 35° C., with agitation (120 rpm), for 24 h. After this time, culture viability was determined by total viable count (TVC) analysis on ACX plates (see below), following serial dilution in quarter-strength Ringers solution. Also, at the end of each experiment, the extent of glucose or fatty acid biotransformation to propionic acid was measured by capillary gas chromatography (GC) (see below), and the dose response data used to calculate, for each active ingredient, a BIC so value (50% biotransformation inhibition concentration). The mode of action (bacteriostatic or bactericidal) at this level was elucidated by reference to culture viability data, which was also used to determine the MBC (minimum bactericidal concentration), defined as the minimum level of each active effecting a >3 log10 ml^31 1 reduction in viability (Tables 1 & 2). Finally, the data for P. acnes G63 and P. avidum NCTC 11864 were combined to generate mean and range anti-propionibacterial values (Table 1).
(§2) KH2PO4 (1.6); (NH4)2HPO4 (5.0); Na2SO4 (0.38); KNO3 (0.1); NaHCO3 (1.0); sodium thioglycolate (1.0); sodium pyruvate (1.0); yeast nitrogen base (Difco) (3.35); MgCl2.6H2O (0.5).
(§3) Tryptone soya broth (Merck) (30.0); yeast extract (Beta Lab) (10.0); Tween 80™ (5.0).
(§4) blood agar base no. 2 (Oxoid) (39.5); yeast extract (Beta Lab) (3.0); glucose (2.0); Tween 80 ™ (5.0); defibrinated horse blood (50 ml/l).
(§5) 1.0 ml aliquots from each assay vial were transferred into sampling tubes, an internal standard (1.0 mg/ml caproic acid) added to each tube, and the culture medium acidified (pH˜2) by the addition of HCl. Liquid-liquid extraction was then carried out using 2 vol (2 ml) ethyl acetate, with organic and aqueous phases being resolved by centrifugation (2000 rpm, 2 min). ˜0.75 ml of each organic (upper) phase was then transferred to a fresh sampling tube prior to analysis on a Perkin Elmer 8000 (Series 2) GC fitted with a 15 m×0.32 mm (internal diameter) FFAP fused silica capillary column (film thickness 0.25 μm) (Quadrex). Metabolite levels were quantified by comparison of peak areas with known amounts of both internal (caproic acid) and externally-run (propionic acid) standards. GC running conditions as indicated: injector (split/splitless), 300° C.; detector (flame ionisation), 300° C.; oven, 80° C. (2 min), 80-155° C. (7.5° C./min), 155° C. (1 min); injection volume, 1.0 μl.

[2] = system: Corynebacterium sp. NCIMB 40928; test: In vitro corynebacterial model: pentadecanoic acid biotransformation to propionic acid (GC) and culture viability (TVC); type: cell-based; conditions: for BIC50, concentration at 50% inhibition of pentadecanoic acid biotransformation to propionic acid: aerobic, 35° C.; for BIC50 MoA(s), mode of action at BIC50 level: by reference to culture viability data; for MBC: read-out: MBC, minimum bactericidal levels
Description: as §1, §2, §3, §4, §5

[3] = Corynebacterium sp. NCIMB 40928, 24 h
[4] = Corynebacterium sp. NCIMB 40928

SMILES	BIC50 MoA(s), mode(s) of action at BIC50 levels [1]	selectivity for Propionibacterium spp. compared to other bacteria normally present on the skin ([1]; comparison of Tables 1 and 2, versus Triclosan)	BIC50, mean concentration at 50% inhibition of glucose biotransformation to propionic acid [1]	MBC, range of minimum bactericidal levels [1]	anti-propionibacterial properties compared with Triclosan ([1]; summary of Table 1)	BIC50, concentration at 50% inhibition of pentadecanoic acid biotransformation to propionic acid [2, 3]	BIC50 MoA(s), mode of action at BIC50 level [2, 4]	MBC ([2]; NCIMB40928, Corynebacterium sp. NCIMB 40928, minimum level effecting >3 log10 reduction in viability, 24 h)	MBC ([2]; Corynebacterium, NCIMB40928, 24 h)
CCCCCCc1ccc(O)cc1O [4-Hexylresorcinol, 4-hexylresorcinol]	Bacteriostatic/; also recorded: Bactericidal	far greater selectivity than Triclosan	42 ppm	50-100 ppm	as good as those of Triclosan	118 ppm	Bacteriostatic	> 500 µg/mL	–
Oc1cc(Cl)ccc1Oc1ccc(Cl)cc1Cl [Triclosan, 2,4,4′-trichloro-2′-hydroxydiphenyl ether, reference compound]	Bactericidal; also recorded: Bacteriostatic/	–	39 ppm	50-100 ppm	–	20 ppm	Bacteriostatic	–	50 µg/mL (≈ 173 µM)
